Columns and labels:
bedstraw = experiment: Test B pre/postemergence bedstraw; type: in vivo, Galium aparine
How it was run: (§1)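 Response is a visual 0-to-10 score relative to untreated plants, where 0 means no effect and 10 means complete control, taken twelve to sixteen days after application. Treatments went onto soil at planting and onto foliage of 1- to 4-leaf plants, using a surfactant-containing non-phytotoxic solvent.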

surinam grass = experiment: Test B pre/postemergence surinam grass; type: in vivo, Brachiaria decumbens
How it was run: as §1

cocklebur = experiment: Test B pre/postemergence cocklebur; type: in vivo, Xanthium strumarium
How it was run: as §1

corn = experiment: Test B pre/postemergence corn; type: in vivo, Zea mays
How it was run: as §1

crabgrass = experiment: Test B pre/postemergence crabgrass; type: in vivo, Digitaria sanguinalis
How it was run: as §1

giant foxtail = experiment: Test B pre/postemergence giant foxtail; type: in vivo, Setaria faberii
How it was run: as §1

morningglory = experiment: Test B pre/postemergence morningglory; type: in vivo, Ipomoea hederacea
How it was run: as §1

pigweed = experiment: Test B pre/postemergence pigweed; type: in vivo, Amaranthus retroflexus
How it was run: as §1

rape = experiment: Test B pre/postemergence rape; type: in vivo, Brassica napus
How it was run: as §1

soybean = experiment: Test B pre/postemergence soybean; type: in vivo, Glycine max
How it was run: as §1

sugar beet = experiment: Test B pre/postemergence sugar beet; type: in vivo, Beta vulgaris
How it was run: as §1

velvetleaf = experiment: Test B pre/postemergence velvetleaf; type: in vivo, Abutilon theophrasti
How it was run: as §1

wheat = experiment: Test B pre/postemergence wheat; type: in vivo, Triticum aestivum
How it was run: as §1

purple nutsedge = experiment: Test B pre/postemergence purple nutsedge; type: in vivo, Cyperus rotundus
How it was run: as §1

duck salad = experiment: Test B flood test duck salad; type: in vivo, Heteranthera limosa; details: Pre-emergence
How it was run: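 Plants were grown to the 2-leaf stage before treatment with test chemical, then held in a greenhouse for twelve to sixteen days. Injury was visually rated against untreated controls on a 0–10 scale, where 0 is no effect and 10 is complete control.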

[1] = Preemergence, Rate 62 g/ha, scale of 0 to 10 where 0 is no effect and 10 is complete control
[2] = Preemergence, Rate 250 g/ha, scale of 0 to 10 where 0 is no effect and 10 is complete control
[3] = Preemergence, Rate 500 g/ha, scale of 0 to 10 where 0 is no effect and 10 is complete control
[4] = Rate 62 g/ha, Postemergence, scale 0 to 10 (0 no effect, 10 complete control)
[5] = Rate 125 g/ha, Postemergence, scale of 0 to 10 where 0 is no effect and 10 is complete control
[6] = Rate 250 g/ha, Postemergence, scale of 0 to 10 where 0 is no effect and 10 is complete control
[7] = Rate 500 g/ha, Postemergence, scale 0 to 10, 0 no effect, 10 complete control

C=CCn1c(=O)on(C(=O)N(CC)C2CCCCC2)c1=O [Compound 307]
Bedstraw plant response rating (bedstraw; [1]): 0
Bedstraw plant response rating (0 to 10 scale) (bedstraw; Preemergence, Rate 125 g/ha): 0
Bedstraw plant response rating (bedstraw; [2]): 0
Bedstraw plant response rating (bedstraw; [3]): 0
Bedstraw plant response rating (bedstraw; [4]): 0
Bedstraw plant response rating (bedstraw; [5]): 0
Plant response rating, Bedstraw (bedstraw; [6]): 0
Bedstraw plant response rating (bedstraw; [7]): 0
B. signalgrass plant response rating (surinam grass; [1]): 0
B. signalgrass plant response rating (0 to 10 scale, 0 is no effect, 10 is complete control) (surinam grass; Preemergence, Rate 125 g/ha): 0
B. signalgrass plant response rating (surinam grass; [2]): 0
B. signalgrass plant response rating (surinam grass; [3]): 4
B. signalgrass plant response rating (surinam grass; [4]): 0
B. signalgrass plant response rating (surinam grass; [5]): 0
Plant response rating, B. signalgrass (surinam grass; [6]): 0
B. signalgrass plant response rating (surinam grass; [7]): 0
Cocklebur plant response rating (cocklebur; [1]): 0
Cocklebur plant response rating (0 to 10 scale) (cocklebur; Preemergence, Rate 125 g/ha): 0
Cocklebur plant response rating (cocklebur; [2]): 0
Cocklebur plant response rating (cocklebur; [4]): 0
Cocklebur plant response rating (cocklebur; [5]): 0
Plant response rating, Cocklebur (cocklebur; [6]): 0
Cocklebur plant response rating (cocklebur; [7]): 0
Corn plant response rating (corn; [1]): 0
Corn plant response rating (0 to 10 scale) (corn; Preemergence, Rate 125 g/ha): 0
Corn plant response rating (corn; [2]): 0
Corn plant response rating (corn; [3]): 2
Corn plant response rating (corn; [4]): 0
Corn plant response rating (corn; [5]): 0
Plant response rating, Corn (corn; [6]): 0
Corn plant response rating (corn; [7]): 0
Crabgrass plant response rating (crabgrass; [1]): 0
Crabgrass plant response rating (0 to 10 scale) (crabgrass; Preemergence, Rate 125 g/ha): 0
Crabgrass plant response rating (crabgrass; [2]): 0
Crabgrass plant response rating (crabgrass; [3]): 2
Crabgrass plant response rating (crabgrass; [4]): 0
Crabgrass plant response rating (crabgrass; [5]): 0
Plant response rating, Crabgrass (crabgrass; [6]): 0
Giant foxtail plant response rating (giant foxtail; [1]): 6
Giant foxtail plant response rating (0 to 10 scale) (giant foxtail; Preemergence, Rate 125 g/ha): 8
Giant foxtail plant response rating (giant foxtail; [2]): 9
Giant foxtail plant response rating (giant foxtail; [3]): 9
Giant foxtail plant response rating (giant foxtail; [4]): 0
Giant foxtail plant response rating (giant foxtail; [5]): 0
Plant response rating, Giant foxtail (giant foxtail; [6]): 0
Morningglory plant response rating (morningglory; [1]): 0
Morningglory plant response rating (0 to 10 scale) (morningglory; Preemergence, Rate 125 g/ha): 0
Morningglory plant response rating (morningglory; [2]): 0
Morningglory plant response rating (morningglory; [3]): 0
Morningglory plant response rating (morningglory; [4]): 0
Morningglory plant response rating (morningglory; [5]): 2
Plant response rating, Morningglory (morningglory; [6]): 2
Redroot pigweed plant response rating (pigweed; [1]): 0
Redroot pigweed plant response rating (0 to 10 scale) (pigweed; Preemergence, Rate 125 g/ha): 0
Redroot pigweed plant response rating (pigweed; [2]): 0
Redroot pigweed plant response rating (pigweed; [3]): 4
Redroot pigweed plant response rating (pigweed; [4]): 0
Redroot pigweed plant response rating (pigweed; [5]): 0
Plant response rating, Redroot pigweed (pigweed; [6]): 0
Rape plant response rating (rape; [1]): 0
Rape plant response rating (0 to 10 scale) (rape; Preemergence, Rate 125 g/ha): 0
Rape plant response rating (rape; [2]): 0
Rape plant response rating (rape; [3]): 0
Rape plant response rating (rape; [4]): 0
Rape plant response rating (rape; [5]): 0
Plant response rating, Rape (rape; [6]): 0
Soybean plant response rating (soybean; [1]): 0
Soybean plant response rating (0 to 10 scale) (soybean; Preemergence, Rate 125 g/ha): 0
Soybean plant response rating (soybean; [2]): 0
Soybean plant response rating (soybean; [3]): 0
Soybean plant response rating (soybean; [4]): 0
Soybean plant response rating (soybean; [5]): 2
Plant response rating, Soybean (soybean; [6]): 2
Sugarbeets plant response rating (sugar beet; [1]): 0
Sugarbeets plant response rating (0 to 10 scale) (sugar beet; Preemergence, Rate 125 g/ha): 0
Sugarbeets plant response rating (sugar beet; [2]): 0
Sugarbeets plant response rating (sugar beet; [3]): 2
Sugarbeets plant response rating (sugar beet; [4]): 0
Sugarbeets plant response rating (sugar beet; [5]): 0
Plant response rating, Sugarbeets (sugar beet; [6]): 0
Velvetleaf plant response rating (velvetleaf; [1]): 0
Velvetleaf plant response rating (0 to 10 scale) (velvetleaf; Preemergence, Rate 125 g/ha): 0
Velvetleaf plant response rating (velvetleaf; [2]): 0
Velvetleaf plant response rating (velvetleaf; [3]): 2
Velvetleaf plant response rating (velvetleaf; [4]): 0
Velvetleaf plant response rating (velvetleaf; [5]): 0
Plant response rating, Velvetleaf (velvetleaf; [6]): 0
Wheat plant response rating (wheat; [1]): 0
Wheat plant response rating (0 to 10 scale) (wheat; Preemergence, Rate 125 g/ha): 0
Wheat plant response rating (wheat; [2]): 0
Wheat plant response rating (wheat; [3]): 0
Wheat plant response rating (wheat; [4]): 0
Wheat plant response rating (wheat; [5]): 0
Plant response rating, Wheat (wheat; [6]): 0
Nutsedge plant response rating (purple nutsedge; [1]): 0
Nutsedge plant response rating (0 to 10 scale) (purple nutsedge; Preemergence, Rate 125 g/ha): 0
Nutsedge plant response rating (purple nutsedge; [2]): 0
Nutsedge plant response rating (purple nutsedge; [3]): 0
Nutsedge plant response rating (purple nutsedge; [4]): 0
Nutsedge plant response rating (purple nutsedge; [5]): 0
Plant response rating, Nutsedge (purple nutsedge; [6]): 0
Ducksalad plant response rating (duck salad; Rate 1000 g/ha, scale 0 to 10 (0 no effect, 10 complete control)): 0
Ducksalad plant response rating (duck salad; Rate 125 g/ha, flood test species, scale 0 to 10 where 0 is no effect and 10 is complete control): 0
Ducksalad plant response rating (duck salad; Rate 250 g/ha, flood-test species, scale 0 to 10, 0 is no effect, 10 is complete control): 0
Ducksalad plant response rating (duck salad; Rate 500 g/ha, flood test species, scale 0 to 10 (0 no effect, 10 complete control)): 0

Source: patent US6737383B1, “Herbicidal oxadiazolidines” (priority 1999, dated 2004)
